Experimental data as given in a melting point compilation (Tetko et al.; mined from patent text by program, amines drawn as free bases though some values may be those of a salt).

Point of comparison: `COc1ccccc1CNc1ccc2cc(Nc3nnn(C(C)(C)C)n3)ccc2n1`, melting point 156 °C. Against it:
- CCc1cccc(-c2ccc(S(=O)(=O)N3c4ccccc4CC3C(=O)NCc3ccc(CC(=O)O)cc3)cc2)c1 (stereo not given) — lower, 98 °C
- COC(=O)CC1=CCN(C)c2ccc(Cl)cc21 — lower, 99 to 101 °C
- CC(=O)C=Cc1ccc(OCc2ccccc2)cc1 — lower, 106 to 107 °C
- CC(=O)OC1(C(C)=O)CCC2C3CCC4=CC(=O)CCC4(C)C3(Br)C(F)CC21C (stereo not given) — higher, 180 to 182 °C
- CCC(CC)(CC(=O)Nc1cccc(SCc2ccc3ccc(F)cc3n2)c1)C(=O)O — lower, 70 to 71 °C
- O=C(O)CCCCCOC(=O)n1c(-c2cscn2)nc2ccccc21 — lower, 79 to 81 °C
- CS(=O)c1ccc(C(=O)CCCCCC#N)cc1 (stereo not given) — lower, 58.5 to 60.5 °C
- CCCN1CCC23c4cccc(O)c4OC2C2CCC3(C1)C(CSC)C2 (stereo not given) — lower, 152 to 153 °C
- O=c1[nH]c2cc(Cl)ccc2n1C1CCN(C[C@H]2CO[C@@H](c3ccc(F)cc3)C2)CC1 (relative stereo) — higher, 208 °C
- Cc1[nH]cc2c(=O)n(-c3ccc(Cl)cc3)nc-2c1-c1ccc(N2CCOCC2)cc1 — higher, 306 to 315 °C
- CC(O)CCCOc1ccc2nc3[nH]c(=O)[nH]c3cc2c1 (stereo not given) — higher, 301 to 303 °C
- O=Cc1cccc2nnsc12 — lower, 134 to 136 °C
- Cc1cc(=O)n(CCBr)o1 — lower, 39 to 40 °C
- CCOC(=O)c1cnc2n(c1=O)C(C)CCC2=NNC(=O)c1ccccc1 (stereo not given) — higher, 209 to 210 °C
- CC(C)(C)OC(=O)[C@H](Cc1ccc(O)cc1)NC(=O)c1c(Cl)cccc1Cl — higher, 177 to 178 °C
- CCOC(=O)C1OC1C(=O)N(C)C1CCCCC1 (stereo not given) — lower, 52 to 55 °C
- N#CCC(C#N)S(=O)(=O)c1ccc(Cl)cc1 (stereo not given) — lower, 130 to 137 °C
- NC1CCCCCCCCCCC(=O)N1 (single isomer, unassigned; (-)) — lower, 128 to 130 °C
- COC(=O)CC[C@H](NC(=O)c1ccc(NCCc2c(N(C(C)=O)C(C)=O)nc(NC(C)=O)[nH]c2=O)cc1)C(=O)OC — higher, 168 to 178 °C
- Cc1cc(-c2c(-c3ccc(S(N)(=O)=O)cc3)cnn(-c3ccc(F)c(F)c3)c2=O)ccc1F — higher, 243 to 245 °C
- COc1cccc2c(C3CCN(C(=O)OC(C)(C)C)CC3)noc12 — lower, 130 to 132 °C
- CCCc1nc2c(N)nc3cc(-c4cccc(C(=O)NC5CC5)c4)ccc3c2s1 — higher, 251 to 254 °C
- CC1C(=O)N(c2ccc(Oc3ccccc3)cc2)C(=S)N1Cc1ccccc1 (stereo not given) — lower, 138 °C
- CCCCCCCCc1ccc(NC(=O)Nc2ccc(S(N)(=O)=O)cc2)cc1 — higher, 282 to 283 °C
- COCOCC(=O)c1cnc(NC(=O)C(C)(C)C)cn1 — lower, 141 to 142 °C
- Cn1cnc2nc(-c3ccc(C#N)cc3)nn2c1=S — higher, > 300 °C
- Cc1sc(N)c(C(=O)c2cccc(C(F)(F)F)c2)c1C — lower, 103 to 105 °C
- CC(CCCC(F)(C(F)(F)F)C(F)(F)F)C1CC(=O)C2=C3CCC4CC(O)CCC4(C)C3CCC21C (stereo not given) — higher, 177 to 179 °C
- CCCCCCCCCCCCS(=O)(=O)N1CCCSC1=C[N+](=O)[O-] — lower, 116 to 117 °C
- O=C(O)CCc1cc2cc(Cl)ccc2n1S(=O)(=O)c1ccc(Cl)cc1 — higher, 158 to 160 °C
- Cc1cc(Cl)ccc1OCC(=O)Nc1ccc(S(N)(=O)=O)cc1 — higher, 218 to 220 °C
- O=C(CC1CC1)Nc1c(C(=O)c2ccccc2)[nH]c2cc(Cl)ccc12 — lower, 72 to 75 °C
- C=CCn1c(=O)c2c(nc(/C=C/c3cc(OC)c(O)c(OC)c3)n2C)n(CC=C)c1=O — higher, 239 to 240 °C
- CSC(Oc1cc(Cl)cc(Cl)c1)C(=O)NC(C)(C)C#CCCCC#N (stereo not given) — lower, 113 to 114 °C
- CCCc1c(OCCCCCOc2ccc3oc(C(=O)O)cc3c2)ccc2c1OCCC2=O — higher, 192 to 195 °C
- COc1cc(Nc2ncc([N+](=O)[O-])c(-c3ccccc3)n2)cc(OC)c1OC — lower, 103 to 105 °C
- c1ccc(N2CCN(CC[C@H]3CC[C@H](c4c[nH]c5ccccc54)CC3)CC2)nc1 — lower, 147 to 148 °C
- CC[C@@H](NC(=O)CCCCl)C(N)=O — lower, 118 to 123 °C
- Cc1ncc([N+](=O)[O-])n1CCN1C(=O)NC2(C1=O)C1CC3CC(C1)CC2C3 (stereo not given) — higher, 276 to 280 °C
- C[C@H](c1ccccc1)N1C(=O)N[C@@H]2C(=O)OC[C@@H]21 — lower, 123 to 125 °C
- O=C(c1cc(Cl)cc(Cl)c1)N1CCN(Cc2ccccc2)C[C@H]1Cc1c[nH]c2ccccc12 — lower, 93 to 98 °C
- C=C1CCc2c(N3CCC(O)C3)c(F)cc3c(=O)c(C(=O)O)cn1c23 (stereo not given) — higher, 190 to 196 °C
- COCCc1cc([N+](=O)[O-])cc([N+](=O)[O-])c1 — lower, 65 °C
- CCSc1cccc2c1CC(=O)N2 — lower, 143 to 144 °C
- CC(=O)c1ncn(-c2ccccc2)n1 — higher, 174 to 176 °C
- CCCCc1nc(I)c(C=O)n1Cc1ccc(C(=O)OC)c2ccccc12 — higher, 178 to 179 °C
- N#Cc1ccc(-c2cn(-c3ccc(OC(F)(F)F)cc3)cn2)cc1 — lower, 155 °C
- O=C(O)C(=Cc1cc(C(=O)O)c(=O)n2ccccc12)C(=O)O — higher, > 250 °C
- CCCCCCC(C)(C)c1ccc([C@@H]2CC(=O)C[C@H](C)C2)c(O)c1 (relative stereo) — lower, 95 to 98 °C
- Cc1cc2[nH]c(CC(C)(C)N3C(=O)c4ccccc4C3=O)nn2n1 — higher, 197 to 199 °C
- CCOc1c(NCCP(=O)(OCC)OCC)c(=O)c1=O — lower, 66 to 68 °C
- COC(=O)c1ccc(-c2nc(Nc3cc(OC)c(OC)c(OC)c3)ncc2C#N)cc1 — higher, 206 to 208 °C
- Cc1nc(-c2ccc3c(=O)n(CC(C)C)c(CNC(=O)OC(C)(C)C)c(-c4ccccc4)c3c2)sc1C#N — higher, 209 to 211 °C
- CCCCOC(=O)c1cccc(CCN(C)CCCC(C#N)(c2ccc(OC)c(OC)c2)C(C)C)c1 (stereo not given) — lower, 97 to 103 °C
- OCCc1c(-c2ccccc2)n2nnnc2n2ncnc12 — lower, 110 °C
- N#CCOC(=O)c1ccc([N+](=O)[O-])cc1 — lower, 80 to 82 °C
- CCOC(=O)COc1ccc2c(c1)CC(CNC(=O)OC(C)(C)C)C2 (stereo not given) — lower, 56 to 63 °C
- O=NCNC1=Nc2sc(Cl)cc2C(c2ccccc2)=NC1 — lower, 108 to 110 °C
- CCN(CC)CCNC(=O)Cn1ncc(-c2ccccc2)c1-c1ccccc1 — lower, 67 to 69 °C
- CCOC(CNc1nncs1)OCC — lower, 108 to 112 °C
- COc1ccc(-c2[nH]c3cn[nH]c(=O)c3c2Cl)cc1OC1CC1 — higher, 293 to 294 °C
- COC1=CC(C)(O)C(CCC(=O)O)C=C1 (stereo not given) — lower, 142 °C
- CC(c1ccc2ccccc2c1)N(O)C(=O)NO (stereo not given) — lower, 148 to 150 °C
- O=C(NCc1ccncc1)c1cccc2c1OCCO2 — lower, 120 to 121 °C
- CCCCCCCCN(C[C@H]1CCC[C@H](CN(CCCCCCCC)C(=O)Nc2ccc(N(C)C)cc2)C1)C(=O)Nc1ccc(N(C)C)cc1 (relative stereo) — lower, 115 to 119 °C
- Cn1c(=O)n(S(=O)(=O)c2ccc(Cl)cc2)c(=O)c2ccc(Cl)cc21 — higher, 205 to 208 °C
- CC(=O)NCc1ccc(CN2CCN(c3ncc(Br)s3)CC2)cc1 — higher, 160 to 163 °C
- CN(C)C(=O)C(CCO)C1(C)CCCc2c1[nH]c1ccccc21 (stereo not given) — lower, 145 to 146 °C
- Cc1c(C(=O)O)nc2c(=O)[nH]c3cc(S(C)(=O)=O)ccc3n12 — higher, 228 °C
- CCOC(=O)N1CCN(c2cc3nc(C(C)(C)C)sc3cc2N=C=S)CC1 — lower, 131 to 134 °C
- O=c1ccn2c(n1)COc1ccc(Cl)cc1-2 — higher, 222 to 224 °C
- O=C1OC(CN2CCC(O)(c3ccc(F)cc3)CC2)CN1c1ccc(F)cc1 (stereo not given) — lower, 145 to 147 °C
- CC(=O)Nc1cccc(C#Cc2c(F)c(F)nc(F)c2F)c1 — higher, 215 to 216 °C
- O=S(=O)(Nc1cnc(-n2ccnc2)nc1NCc1ccc(Br)cc1)c1ccc(Cl)cc1 — higher, 183 to 185 °C
- CC(C)Oc1ccc(C(=O)O)c(C(=O)O)c1 — lower, 116 to 118 °C
- O=C(O)C1c2ccccc2COc2ccccc21 (stereo not given) — higher, 200 to 201 °C
- CCOC(=O)CCCN1CCC2(CC1)CN(c1ccc(C#N)cc1)C(=O)O2 — lower, 78 to 80 °C
- CCn1nc2c(N)nc3ccccc3c2c1CCCCO — higher, 159 to 160 °C
- CCCCCP(=O)(CC(=O)OC)OCc1ccc(-c2ccccc2C(=O)O)cc1 (stereo not given) — lower, 101 to 102 °C
- Cn1cncc1C(O)(c1ccc(Cl)cc1)c1ccc2c(c1)C(c1cccc(Cl)c1)SCC(=O)N2CC1CC1 (stereo not given) — higher, 245 °C
- CN1CCN(c2ccc(Nc3ncc4c(n3)S/C(=C/c3ccc(C(N)=O)cc3)C(=O)N4)cc2)CC1 — higher, 294 to 298 °C
- CN(C(=O)c1cccc(S(=O)(=O)N(C)c2ccc(Br)cc2)c1)c1ccc(Cl)cc1F — lower, 127 to 128 °C
- CCOC(=O)c1cn(C2CC2)c2c(F)c(NCC(O)COC(=O)c3ccccc3)c(F)cc2c1=O (stereo not given) — lower, 134 to 136 °C
- COc1ccnc(C(C)Sc2nc3cc(OC(F)F)c(OC)cc3[nH]2)c1 (stereo not given) — lower, 128 to 131 °C
- COc1cc(NC(=O)Nc2c(-c3ccccc3C)c3cc(C)c(C)cc3oc2=O)cc(OC)c1OC(C)=O — higher, 238 to 240 °C
- CC(C#Cc1cccc(C=Cc2ccccn2)c1)N(O)C(N)=O (stereo not given) — lower, 122 to 126 °C
- COC(=O)CCC1(CCC(=O)OC)CCC(=O)N1 — lower, 70 to 73 °C
- CNN(NC)C(=O)Nc1cccc2c1C(=O)c1c-2n[nH]c1-c1ccc(C)s1 — higher, > 280 °C
- CCOC(=O)CC(NC(=O)c1cc(N)ccc1OCCOC)c1ccccc1 (racemic) — lower, 105 to 106 °C
- COc1ccc2[nH]c(S(=O)Cc3nccc(N(C)C)c3Cl)nc2c1 (stereo not given) — lower, 113 to 114 °C
- Cc1ncccc1Oc1ccc(N)cn1 — lower, 95 to 100 °C
- COc1ccc2[nH]c(C=Cc3ccc(OC)c(OC)c3)nc2c1 — higher, 246 to 249 °C
- CNC(=O)c1cccc(CN2CCN(c3nc(C)c(-c4cc(C)n[nH]4)s3)C2=O)c1 — higher, 259 to 261 °C
- O=C(c1ccc(C2CCCCC2)cc1)N1Cc2cccn2Cc2ccccc21 — lower, 127 to 129 °C
- CCOC(=O)COc1cccc(N)c1 — higher, 162 to 164 °C
- CN(C)C1CCC2(CC1)Nc1cc(Cl)c(S(N)(=O)=O)cc1S(=O)(=O)N2 (stereo not given) — higher, 255 °C
- COCc1cc2c(Nc3cccc(Cl)c3)ncnc2[nH]1 — higher, 226 to 230 °C
- Cc1ccc2oc(=O)n(-c3ccnc(N)c3)c2c1 — higher, 173 to 174 °C
- COc1cc2ncnc(N3CCc4ccccc43)c2cc1OC — higher, 162 to 163 °C
